This note sets out measurements from patent US11046647B2, “Activators of the unfolded protein response” (The Board of Trustees of the University of Illinois, priority 2018, dated 2021).

Molecules are shown by their SMILES.

The subject of one data set is T47D, TYS and TDG cells. Nature of the data set: MTS proliferation assay (4 days), T47D, TYS and TDG. It counts as cell-based, human. The procedure:
FIG. 30 compares the ability of BHPI and test compounds to inhibit proliferation of T47D, TYS and TDG cells. T47D cells were in medium containing 10 FBS (which contains estrogen), TYS-4 and TDG-1 cells were in medium containing 10% cd-FBS (estrogen depleted). Cells are plated at 2,000 cells/well in 96 well plates. After 24 hours in medium containing FBS or charcoal-dextran treated FBS (depleted of endogenous estrogens), the indicated concentration of each compound (in DMSO at 1/1000th of the volume of medium) was added. After 2 days the medium was changed, and the compounds were added again. After 2 additional days (4 days total) MTS assays are used to evaluate cell proliferation. (n=6 ±S.E.M.).
(In general: Tetrazolium dyes change colour on reduction, which living cells bring about.)

For another data set, the system named is TDG cells. Nature of the data set: Trypan Blue exclusion cell death assay, TDG / TDG-Luc. The conditions noted are these: 24 hours. Type of data set: cell-based, human. An excerpt: (§1) TRYPAN BLUE: For decades, viable cells have been measured by their ability to exclude the dye Trypan Blue. […] Dead cells, which have lost membrane integrity, take up the dye and are blue. Thus, the percentage of dead cells is the percentage of cells that are Trypan Blue positive out of the total cell population. Quantitative assessment of Trypan Blue uptake uses a cell counter from Fisher. Since the assay is instrument based, there is no observer bias in determining the percentage of Trypan Blue positive cells.
(§2) TRYPAN BLUE ASSAYS: Assays are performed on cells in 6 well plates: 300,000 cells are plated in each well of a 6-well plate in 3 ml of medium. After 24 hours, the DMSO vehicle or the indicated compound is added (in 1000th of the vol.) The cells incubated for an additional 24 hours, and then harvested in 0.25 ml of trypsin, followed after harvest by 0.75 ml of medium. The cells are spun down and resuspended in 100-200 μl of medium left that is over the cell pellet (resuspend cells by pipetting up and down a few times). Add 10 μl to 10 μl of trypan blue. Then 10 μl is inserted into the counting slide. After inserting the slide into the Fisher TC20 counting is automatic (these many cells are needed because an accurate ratio of Trypan Blue positive to Trypan Blue negative cells requires about 200 cells in the field the instrument counts).
The Trypan Blue cell death assay was used to evaluate the ability of the active enantiomer of C-105 [(−)-105] to kill ERα positive TDG-Luc cells. For all studies, 300,000 TDG-Luc cells/well in 10% FBS were plated in a 6-well plate in triplicate. 24 hours after plating, the indicated concentrations the active enantiomer of (−)-105, or BHPI (top) ICI, or OHT (Lower left) or (+)-105 (lower right) were added. After 24 hours, the cells were harvested, and the % dead cells was determined by automated Trypan Blue exclusion using the Countess II automated hemocytometer. Percentage of viable cells was calculated by doing 100-(Cell Death %). (n=3±SEM).
TDG cells were incubated for 24 hours with 75 nM of BHPI or 75 nM of each of the indicated test compounds: 4, 6 and (±)-105 (enantiomers not separated). Cell death was determined using the instrument-based Trypan Blue exclusion assay. Structures are in the Synthesis section. […] (n=3±SEM).

The next data set deals with TYS cells. Nature of the data set: Trypan Blue exclusion cell death assay, TYS / TYS-Luc. It counts as cell-based, human. The conditions noted are these: 24 hours.
From the text: as §1, §2
The Trypan Blue cell death assay was used to evaluate the ability of the active enantiomer of 105 (−) [(−)-105] to kill ERα positive MCF-7 and TYS-Luc, human breast cancer cells. 300,000 T47D cells/well in 10% FBS were plated in a 6-well plate in triplicate. 24 hours after plating, the indicated concentrations of BHPI, or the active enantiomer 105 (−) of C-105 [(−)-105] was added. After 24 hours, the cells were harvested, and the % dead cells was determined by automated Trypan Blue exclusion using the Countess II automated hemocytometer. Percentage of viable cells was calculated by doing 100-(Cell Death %). (n=3±SEM).
TYS cells were incubated for 24 hours with 35 nM of BHPI or 35 nM of each of the indicated test compounds: 2, 4, and 105. Cell death was determined using the instrument-based Trypan Blue exclusion assay.
TYS cells were incubated for 24 hours with 50 nM of BHPI or 50 nM of each of the indicated test compounds: 4, 6 and 105. Cell death was determined using the instrument-based Trypan Blue exclusion assay. (n=3±SEM).

The subject of data set [1] is T47D cells. Nature of the data set: Trypan Blue exclusion cell death assay, T47D / T47D-Luc. The conditions noted are these: 75 nM, 24 hours. Type of data set: cell-based, human.
From the text: as §1
as §2, with “After inserting the slide into the Fisher TC20 counting is automatic (these many cells are needed because an accurate ratio of Trypan Blue positive to Trypan Blue negative cells requires about 200 cells in the field the instrument counts).” left out
The Trypan Blue cell death assay was used to compare the ability of the active (−) enantiomer of C-105 and BHPI to kill estrogen receptor α (ERα) positive T47D, human breast cancer cells expressing luciferase (T47D-Luc cells). […] After 24 hours, the cells were harvested, and the % dead cells was determined by automated Trypan Blue exclusion using the Countess II automated hemocytometer. Percentage of viable cells was calculated by doing 100-(Cell Death %). […]
T47D cells were incubated for 24 hours with 75 nM of BHPI or 75 nM of each of the indicated test compounds: 4 and 6. Cell death was determined using the instrument-based Trypan Blue exclusion assay. […]
T47D cells were treated for 24 hours with 100 nM BHPI, or with 100 nM of each of the test compounds: 6, 8, and 105. […] Cell death was determined using the instrument-based Trypan Blue exclusion assay. […]

Data set [2] concerns ERα Negative MCF-10A cells. Nature of the data set: Trypan Blue exclusion cell death assay, MCF-10A. It counts as cell-based. The conditions noted are these: 75 nM, 24 hours.
From the text: as §1, §2
In FIG. 28, neither the test compounds nor BHPI kill non-tumorigenic ERα Negative MCF-10A breast cells. ERα Negative MCF-10A cells were maintained for 24 hours in DMSO vehicle or 75 nM of BHPI or 75 nM of each of the indicated test compounds: 4, 6 and 105. Cell death was determined using the instrument-based Trypan Blue exclusion assay. (n=3±SEM).

Data set [3] concerns T47D cells. Particulars: 24 hours; up to 1,000 nM; FACS annexin V-FITC/PI. Here is the method:
One such change is loss of plasma membrane polarity. This is monitored using Annexin V. Dying cells also take up the dye propidium iodide. Propidium iodide (PI) fluoresces when it is intercalated into DNA. These assays monitor cells at specific stages of cell death.
FLOW CYTOMETRY (FITC) ASSAYS: Cells were seeded in 12-well plates, 75,000 cells/well, and allowed to adhere overnight. The next day, the indicated concentrations of raptinal (positive control), (−)-105, (±)-105, and (+)-105 were added and allowed to incubate at 37° C. for 24 hours (Final Volume: 1 ml, 0.1% DMSO). After incubation, cells were harvested and resuspended in 350 μl of cold Annexin binding buffer (10 mM HEPES, 140 mM NaCl, 2.5 mM CaCl2, pH 7.4) premixed with Annexin V-FITC and PI dyes. Samples were analyzed on a BD Biosciences LSRII flow cytometer, and data analysis was performed using FSC Express Version 5-6. Cell death was assessed relative to a DMSO treated control.
T47D, human breast cancer cells were plated at 75,000 cells/well. The next day, DMSO vehicle, 10 μM raptinal (control for 100% cell death), or 0, 50, 100 500 and 1,000 nM of BHPI or (±)-105, or 1,000 nM ICI/fulvestrant or 1,000 nM OHT was added. After 24 hours viable cells were determined by FACS using annexin V-FITC and propidium iodide dyes. (n=3 independent experiments ±SEM).
75,000 ERα positive T47D, human breast cancer cells, were plated/well. The next day, DMSO vehicle, 10 μM raptinal (control for 100% cell death), or 100 500 and 1,000 nM of (+)-105, or (−)-105 was added. After 24 hours viable cells were determined by FACS using annexin V-FITC and propidium iodide dyes. (n=1).

Data set [4] concerns TYS and TDG breast cancer cells. Briefly: Killing of TYS and TDG breast cancer cells by endocrine therapy drugs. It counts as cell-based, human.
Another data set deals with MCF-7 tumors. Nature of the data set: MCF-7 orthotopic tumor model. It counts as in vivo, mouse. The conditions noted are these: large established MCF-7 tumors; SERK-F6 10 or 40 mg/kg p.o. daily; fulv. 5 mg/mouse s.c. weekly. The procedure: FIG. 39. SERK-F6 eradicates wild-type ERα tumors via hyperactivation of aUPR. a, MCF-7 orthotopic tumors were established in Nu/J ovariectomized mice supplemented with a 60 day E2 pellet (0.36 mg) and grown to ˜400 mm^3 (28 days to establish), randomized, then treated with vehicle daily (n=3), vehicle weekly (n=3), fulv. weekly (5 mg/mouse, s.c., n=6), SERK-F6 daily (10 or 40 mg/kg p.o.). Vehicle arms were averaged. p values: *: p≤0.05, **: p≤0.01, ***: p≤0.001, ****: p≤0.0001. Tumor images were taken at the end of the study (day 21) and are representative of all tumors (n=6). b-e, MCF-7 cells were orthotopically bi-laterally grafted and tumors were grown until total tumor burden was ˜400 mm^3 prior to daily treatment with vehicle or SERK-F6 (40 mg/kg p.o.). Mice (n=5 per arm) were sacrificed after 3 days (b,c) and 7 days (d,e) and tumors harvested. […] Vinculin (Vin) was used as a loading control. […] Error bars represent S.E.M.
To probe the efficacy of SERK-F6 for killing ERα positive tumors, large MCF-7 tumors were grown and then intervened with therapy. […] The mice were then sacrificed prior to complete tumor eradication.

Another data set has as its system OVCAR-3 cells. Particulars: OVCAR-3 orthotopic xenograft.

As to `COc1ccc(C2(c3ccc(O)cc3)C(=O)Nc3c(C)cccc32)cc1` (stereo not shown) [Compound 2, 3-(4-hydroxyphenyl)-3-(4-methoxyphenyl)-7-methylindolin-2-one], the “effectiveness in killing compared with BHPI” value in the data set with T47D, TYS and TDG cells is listed as “more effective than BHPI”.

On to `COc1ccc(C2(c3ccc(O)cc3)C(=O)Nc3c(C(F)(F)F)cccc32)cc1` (stereo not shown) [Compound 4, 3-(4-hydroxyphenyl)-3-(4-methoxyphenyl)-7-(trifluoromethyl)indolin-2-one], for which the “ability to kill TDG cells compared to BHPI” value in the data set with TDG cells (75 nM) is “greatly increased ability to kill”. Moreover, the “ability to kill TYS cells compared to BHPI” value was “greatly increased ability to kill” with TYS cells (35 nM) and “increased ability to kill” with TYS cells (50 nM). Besides, the “ability to kill T47D cells compared to BHPI” value in the data set on T47D cells [1] is on record as “greatly increased ability to kill”. Moreover, the “cell death of MCF-10A cells” value in [2] was “neither BHPI nor any of the test compounds induce significant death”. For the same molecule, the “effectiveness in killing compared with BHPI” value in the data set on T47D, TYS and TDG cells is recorded as “more effective than BHPI”.

As for `CC/C(=C(\c1ccc(O)cc1)c1ccc(OCCN(C)C)cc1)c1ccccc1` [OHT, z-4-hydroxytamoxifen, reference compound], in the data set on T47D cells [3], the “cytotoxic versus cytostatic phenotype” value is on record as “cytostatic”. In addition, in the data set with TDG cells, the “killing of TDG-Luc cells, dose response” value is recorded as “do not kill”.

For the molecule `CC/C(=C(\c1ccccc1)c1ccc(OCCN(C)C)cc1)c1ccccc1` [tamoxifen], in data set [4], the “ability to kill TYS and TDG cells” value is recorded as “no ability at all to kill”.

Take `C[C@]12CC[C@@H]3c4ccc(O)cc4C[C@@H](CCCCCCCCC[S+]([O-])CCCC(F)(F)C(F)(F)F)[C@H]3[C@@H]1CC[C@@H]2O` (stereo partly shown) [fulvestrant, reference compound]: in the data set with TDG cells, the “killing of TDG-Luc cells, dose response” value is “do not kill”. For the same molecule, the tumor response result in the data set on MCF-7 tumors is “dramatic effects against these large and established tumors are not obtained”. Besides, the “ability to kill TYS and TDG cells” value in [4] is “no ability at all to kill”.

`Cc1cccc2c1NC(=O)C2(c1ccc(O)cc1)c1ccc(OC(F)(F)F)cc1` (stereo not shown) [Compound 6, 3-(4-hydroxyphenyl)-7-methyl-3-(4-(trifluoromethoxy)phenyl)indolin-2-one]: in [2], the “cell death of MCF-10A cells” value is reported as “neither BHPI nor any of the test compounds induce significant death”. Moreover, the “effectiveness in killing compared with BHPI” value in the data set with T47D, TYS and TDG cells is given as “more effective than BHPI”.

As to `CC(=O)O[C@H]1C(=O)[C@@]2(C)[C@H]([C@H](OC(=O)c3ccccc3)[C@]3(O)C[C@H](OC(=O)[C@H](O)[C@@H](NC(=O)c4ccccc4)c4ccccc4)C(C)=C1C3(C)C)[C@]1(OC(C)=O)CO[C@@H]1C[C@@H]2O` [paclitaxel], the “tumor growth / detectability” value in the data set on OVCAR-3 cells is listed as “ineffective”.
